Values quoted from earlier work as cited in patent US6174531A, “Methods of preparation of bioginkgo” (priority 1998, dated 2001).
Read-outs that look alike come from different tables or passages of the source.

Assays:
[1] = tested on: PAF platelet membrane receptor; details: in vitro, literature
[2] = rats, literature
[3] = humans, literature

Row | Compound | specificity of inhibition of PAF binding to its platelet receptors [1] | IC50 ([1]; read-out: IC50, inhibition of PAF binding to its platelet receptors) | half-life compared with ginkgolide A [2] | half-life compared with ginkgolide A [3]
1 | C[C@@H]1C(=O)O[C@H]2C[C@@]34[C@H]5C[C@@H](C(C)(C)C)[C@]36[C@@H](OC(=O)[C@@H]6O)O[C@@]4(C(=O)O5)[C@]21O [ginkgolide A] | highly specific |  |  | 
2 | CC1C(=O)OC2C(O)C34C5CC(C(C)(C)C)C36C(OC(=O)C6O)OC4(C(=O)O5)C12O (stereo not drawn) [ginkgolide B] | highly specific | ~100 nM | longer half-life | longer half-life
3 | CC1C(=O)OC2C(O)C34C5OC(=O)C3(OC3OC(=O)C(O)C34C(C(C)(C)C)C5O)C12O (stereo not drawn) [ginkgolide C] | highly specific |  |  | 
